Data as given in ChEMBL document CHEMBL5210121, “Affinity On-target Cellular Literature for EUbOPEN Chemogenomics Library wave 3” (2023).
Blank lines part the entries; values can stand above or below the compound they belong to.

Tests used:
[1] = Affinity On-target Cellular interaction (Measles Virus Inhibition Assay) EUB0000745a DHODH
[2] = target: T1, Protein AF-9 (Homo sapiens, UniProt P42568)
[3] = target: T2, NADH dehydrogenase [ubiquinone] iron-sulfur protein 2, mitochondrial (Homo sapiens, UniProt O75306); assay: Affinity On-target Cellular interaction (Cellular activity assay (measurement of ATP levels in presence of complex II substrate succinate in H1299 cells)) EUB0000752a NDUFS2; format: cell-based; set-up: mode of action Inhibitor, recommended concentration 1 uM
T2 sequence (O75306 whole entry): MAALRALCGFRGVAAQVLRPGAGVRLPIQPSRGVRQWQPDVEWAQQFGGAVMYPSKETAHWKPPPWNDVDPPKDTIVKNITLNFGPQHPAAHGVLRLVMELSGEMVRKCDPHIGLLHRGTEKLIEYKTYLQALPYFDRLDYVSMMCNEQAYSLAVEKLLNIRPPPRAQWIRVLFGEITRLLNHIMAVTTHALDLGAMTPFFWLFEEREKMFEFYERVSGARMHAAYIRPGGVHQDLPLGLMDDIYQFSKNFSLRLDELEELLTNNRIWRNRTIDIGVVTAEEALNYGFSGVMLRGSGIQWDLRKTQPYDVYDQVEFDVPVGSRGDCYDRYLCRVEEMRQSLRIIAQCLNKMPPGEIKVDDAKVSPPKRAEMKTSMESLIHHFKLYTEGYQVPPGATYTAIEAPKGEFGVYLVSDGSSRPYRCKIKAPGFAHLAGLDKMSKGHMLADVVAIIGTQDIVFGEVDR

[4] = target: Protein ENL (Homo sapiens, UniProt Q03111); assay: Affinity On-target Cellular interaction (NanoBRET assay (HEK293T cells)) EUB0000283b MLLT1; set-up: mode of action Inhibitor, recommended concentration 1 uM
Protein ENL, sequence (Q03111 whole entry): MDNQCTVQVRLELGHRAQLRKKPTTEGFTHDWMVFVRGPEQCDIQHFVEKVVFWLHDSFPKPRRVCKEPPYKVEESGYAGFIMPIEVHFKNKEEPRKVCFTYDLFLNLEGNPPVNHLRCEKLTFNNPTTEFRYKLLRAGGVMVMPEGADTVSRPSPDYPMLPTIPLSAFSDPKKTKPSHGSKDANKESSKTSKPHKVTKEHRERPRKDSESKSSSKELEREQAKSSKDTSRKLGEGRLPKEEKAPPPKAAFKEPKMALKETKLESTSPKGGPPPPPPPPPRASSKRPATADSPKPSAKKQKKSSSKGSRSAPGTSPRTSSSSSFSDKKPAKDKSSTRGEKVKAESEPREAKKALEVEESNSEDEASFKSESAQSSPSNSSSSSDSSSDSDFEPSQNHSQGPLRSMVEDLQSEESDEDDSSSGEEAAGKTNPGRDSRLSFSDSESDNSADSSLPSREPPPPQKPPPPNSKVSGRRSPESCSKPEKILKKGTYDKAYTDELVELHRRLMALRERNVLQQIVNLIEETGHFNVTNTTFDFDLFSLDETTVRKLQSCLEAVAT

[5] = Affinity On-target Cellular interaction (Cell-based assay) EUB0000315b MGAT2
[6] = target: T2, NADH dehydrogenase [ubiquinone] iron-sulfur protein 2, mitochondrial; assay: Affinity On-target Cellular interaction (Cellular activity assay (measurement of ATP levels in presence of complex II substrate succinate in H1299 cells)) EUB0000748a NDUFS2; format: cell-based; set-up: mode of action Negative control for BAY-179, recommended concentration 1 uM
[7] = target: T1, Protein AF-9; assay: Affinity On-target Cellular interaction (NanoBRET assay (HEK293T cells)) EUB0000732a MLLT3; set-up: mode of action Negative control for PFI-6, recommended concentration 1 uM
[8] = target: Protein farnesyltransferase subunit beta (Homo sapiens, UniProt P49356); assay: Affinity On-target Cellular interaction (Western Blot (inhibition of Ras in NIH 3T3 H-Ras cells)) EUB0000289c FNTB; format: cell-based; set-up: mode of action Inhibitor, recommended concentration 1 uM
Protein farnesyltransferase subunit beta, sequence (P49356 whole entry): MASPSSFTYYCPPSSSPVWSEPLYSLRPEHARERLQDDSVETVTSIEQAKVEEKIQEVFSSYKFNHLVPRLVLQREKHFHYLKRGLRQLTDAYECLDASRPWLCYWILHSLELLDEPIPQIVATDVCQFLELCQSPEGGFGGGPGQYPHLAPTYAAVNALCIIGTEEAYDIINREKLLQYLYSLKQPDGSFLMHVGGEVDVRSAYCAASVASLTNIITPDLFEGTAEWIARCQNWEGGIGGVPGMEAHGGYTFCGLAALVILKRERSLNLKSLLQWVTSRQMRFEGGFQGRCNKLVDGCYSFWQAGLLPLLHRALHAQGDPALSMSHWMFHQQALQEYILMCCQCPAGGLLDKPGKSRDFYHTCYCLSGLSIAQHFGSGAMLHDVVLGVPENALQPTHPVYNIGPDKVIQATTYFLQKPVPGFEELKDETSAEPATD

[9] = target: Cytochrome P450 11B2, mitochondrial (Homo sapiens, UniProt P19099); assay: Affinity On-target Cellular interaction (HTRF-based assay (V79 cell lines, CisBio)) EUB0000733a CYP11B2; set-up: mode of action Negative control for MSD-CYP11B2, recommended concentration 100 nM
Cytochrome P450 11B2, mitochondrial, sequence (P19099 whole entry): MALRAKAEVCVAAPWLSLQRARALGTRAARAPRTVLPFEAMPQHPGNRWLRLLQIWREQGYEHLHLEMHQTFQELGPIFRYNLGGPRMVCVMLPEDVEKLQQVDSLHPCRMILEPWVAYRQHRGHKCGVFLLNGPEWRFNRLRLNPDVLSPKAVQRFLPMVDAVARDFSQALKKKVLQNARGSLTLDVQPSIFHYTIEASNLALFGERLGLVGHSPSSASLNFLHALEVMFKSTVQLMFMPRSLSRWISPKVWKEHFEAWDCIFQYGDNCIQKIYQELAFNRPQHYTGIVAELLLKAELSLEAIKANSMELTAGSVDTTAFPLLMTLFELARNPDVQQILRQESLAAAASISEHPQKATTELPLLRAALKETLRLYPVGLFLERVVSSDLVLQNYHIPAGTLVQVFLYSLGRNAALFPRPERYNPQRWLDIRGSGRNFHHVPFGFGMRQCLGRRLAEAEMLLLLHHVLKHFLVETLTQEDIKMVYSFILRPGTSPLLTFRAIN

T1 sequence (P42568 whole entry): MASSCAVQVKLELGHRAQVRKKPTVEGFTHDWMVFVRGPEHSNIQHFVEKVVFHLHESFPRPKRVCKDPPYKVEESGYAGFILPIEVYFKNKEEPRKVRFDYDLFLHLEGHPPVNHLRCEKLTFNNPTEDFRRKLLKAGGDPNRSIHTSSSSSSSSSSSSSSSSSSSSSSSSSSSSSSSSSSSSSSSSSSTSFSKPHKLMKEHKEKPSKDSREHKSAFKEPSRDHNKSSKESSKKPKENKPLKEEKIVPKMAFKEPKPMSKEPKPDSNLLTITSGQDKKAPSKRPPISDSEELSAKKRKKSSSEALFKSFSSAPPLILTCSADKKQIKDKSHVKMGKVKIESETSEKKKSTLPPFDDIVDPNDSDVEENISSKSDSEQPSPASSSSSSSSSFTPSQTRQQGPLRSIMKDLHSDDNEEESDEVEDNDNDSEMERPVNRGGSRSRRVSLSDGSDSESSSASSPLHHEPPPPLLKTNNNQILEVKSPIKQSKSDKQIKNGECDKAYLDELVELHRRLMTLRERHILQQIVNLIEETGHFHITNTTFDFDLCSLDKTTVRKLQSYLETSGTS

Compound: Cc1c(Oc2ccc(F)cc2)c(OC(C)C)nn1-c1ccc(C2CC2)cn1 [IPP/CNRS-A019]
IC50 [1]: 1200 nM

Compound: CN(C)C(=O)c1ccc(-c2cc(C(=O)N[C@@H]3CCc4ccccc43)no2)cc1O
IC50 [2]: 760 nM

Compound: c1ccc2oc(-c3csc(C4CCN(Cc5nc6ncccc6[nH]5)CC4)n3)cc2c1
IC50 [3]: 79 nM

Compound: C[C@H]1CCCN1Cc1nc2cc(NC(=O)c3ccc4cnccc4c3)ccc2[nH]1
IC50 [4]: 500 nM

Compound: CN(C)C(=O)c1ccc(-c2cc(C(=O)N(C)C3CCCC3)no2)cc1O
IC50 [7]: > 30000 nM

Compound: Cn1cncc1[C@](O)(COc1ccc(C#N)cc1-c1ccc(OC(F)(F)F)cc1)c1ccc(C#N)cc1 [ABT-100]
EC50 [8]: 0.73 nM

Compound: FC(F)(F)c1ccc2c(c1)nc(-c1cccnc1)n2C1CC1 [MSD-CYP11B2-Negative-control]
IC50 [9]: > 10000 nM

Now from value to compound:

IC50 [5]: 160 nM
Compound: Cn1nc(C(F)(F)F)cc1-c1cnc(N2CCc3cc(S(=O)(=O)Nc4c(F)cc(Cl)cc4F)cc(N4CCCC4=O)c32)nc1 [TP-020]

IC50 [6]: > 30000 nM
Compound: Cn1c(-c2csc(C3CCN(CC4=NC5N=CC=CC5N4)CC3)n2)nc2ccccc21 (centres undefined) [BAY-070]
